The results in this text go back to paper PMC9369419 (International Journal of Molecular Sciences, 2022).

One may read the inhibition as the share of the control response that was lost under treatment. By melting point is commonly meant the temperature of the solid-liquid transition.

Data set [1] has as its target T1, human mGluR5 (Homo sapiens, UniProt P41594).
T1 construct: Flag; expressed in transfected cells; host or cells: HEK293A (transient, Lipofectamine 2000)
Kind of data set: mGluR5 functional assay (IP1 accumulation, HEK293A cells). Type of data set: cell-based. To be noted: 0.1 mM compound. The source says: (§1) Dulbecco’s modified Eagle medium (DMEM), dialyzed fetal bovine serum (FBS), Opti-MEM, penicillin-streptomycin, Dulbecco’s phosphate-buffered saline (DPBS), Hank’s balanced salt solution (HBSS) and Lipofectamine 2000 were purchased from Thermo Fisher Scientific (Waltham, MA, USA). An IP-One Gq kit was purchased from Cisbio (Codolet, France). Quisqualate and poly-D-lysine (PDL) hydrobromide were purchased from Sigma-Aldrich (St. Louis, MO, USA). Falcon clear, tissue culture-treated 96-well plates were from Corning Inc. (Corning, NY, USA). OptiPlate-384 white, opaque 384-well plates were from PerkinElmer, (Waltham, MA, USA). L-AP4 and LY341495 were purchased from Tocris Bioscience (Bristol, UK). The HEK293A cells were a kind gift from Dr. Asuka Inoue (Tohoku University, Sendai, Japan). Plasmids encoding human mGluR4 and Flag-tagged human mGluR5 were kind gifts from Jesper M. Mathiesen (University of Copenhagen, København, Denmark). […]
(§2) Cell culture and IP1 Assay. […] IP1 accumulation was measured on an EnVision 2104 Multilabel Reader using a 340/60 nm excitation filter and 615/8.5 nm (donor) and 665/7.5 nm (acceptor) emission filters. HTRF ratios were calculated as the ratio of acceptor over donor emission (665 nm/615 nm) and converted to IP1 concentrations with an IP1 standard curve according to the instructions from the kit manufacturer.

Data set [2] addresses T2, GluA2(Q)i (Rattus norvegicus, UniProt P19491).
T2 construct: expressed in transfected cells
Description: Intracellular Ca2+ imaging assay, HEK293 cells expressing GluA2(Q)i. The settings on record: 10 µM compound, Ca2+ fluorescence, read-out: inhibition of agonist-evoked responses at GluA2. Type of data set: cell-based. The text has this:
For the determination of antagonistic activity of compounds at GluK1, GluK3 and GluA2 receptors, stable HEK293 cell lines expressing rat GluK1b(Q), GluK3a, and GluA2(Q)i were created. A polyclonal stable cell line expressing GluK3a was created as described previously. For the creation of polyclonal stable cell lines expressing GluK1and GluA2 receptors, cDNA encoding blasticidin-S deaminase (blas) enzymes were inserted into the pIRES plasmid vector (Clontech, Mountain View, CA, USA) to create the plasmid vector pRES(blas). […] For functional assays, cells were plated into clear-bottomed, black 96-well fluorescence culture plates (Corning, Vordingborg, Denmark), and when >70% confluent, the cells were loaded with 2 μM Fluo 4-AM calcium sensitive dye (Abcam, Cambridge, UK) and used for the imaging of agonist-evoked changes in intracellular Ca^2+ using a FlexStation I plate reader (Molecular Devices, San Jose, CA, USA). […] Changes in dye fluorescence in response to the addition of an agonist solution were then measured at 538 nm using excitation at 485 nm and emission cut-off at 515 nm. Baseline fluorescence was measured for 16 s before the addition of 50 µL agonist solution to each well of the assay plate, and fluorescence was measured for 120 to 160 s after addition of the agonists. […] Responses were determined in at least triplicate at each compound concentration.

Data set [3] concerns the target T3, human mGluR4 (Homo sapiens, UniProt Q14833).
T3 construct: expressed in transfected cells; host or cells: HEK293A (transient, Lipofectamine 2000)
Kind of data set: mGluR4 functional assay (IP1 accumulation, HEK293A cells). To be noted: 0.1 mM compound. In kind it is cell-based.
Source text: as §1, §2

Where only a bound is given, the exact number is not on record here.

T2 sequence (P19491 22-883 isoform P19491-2 limits assumed): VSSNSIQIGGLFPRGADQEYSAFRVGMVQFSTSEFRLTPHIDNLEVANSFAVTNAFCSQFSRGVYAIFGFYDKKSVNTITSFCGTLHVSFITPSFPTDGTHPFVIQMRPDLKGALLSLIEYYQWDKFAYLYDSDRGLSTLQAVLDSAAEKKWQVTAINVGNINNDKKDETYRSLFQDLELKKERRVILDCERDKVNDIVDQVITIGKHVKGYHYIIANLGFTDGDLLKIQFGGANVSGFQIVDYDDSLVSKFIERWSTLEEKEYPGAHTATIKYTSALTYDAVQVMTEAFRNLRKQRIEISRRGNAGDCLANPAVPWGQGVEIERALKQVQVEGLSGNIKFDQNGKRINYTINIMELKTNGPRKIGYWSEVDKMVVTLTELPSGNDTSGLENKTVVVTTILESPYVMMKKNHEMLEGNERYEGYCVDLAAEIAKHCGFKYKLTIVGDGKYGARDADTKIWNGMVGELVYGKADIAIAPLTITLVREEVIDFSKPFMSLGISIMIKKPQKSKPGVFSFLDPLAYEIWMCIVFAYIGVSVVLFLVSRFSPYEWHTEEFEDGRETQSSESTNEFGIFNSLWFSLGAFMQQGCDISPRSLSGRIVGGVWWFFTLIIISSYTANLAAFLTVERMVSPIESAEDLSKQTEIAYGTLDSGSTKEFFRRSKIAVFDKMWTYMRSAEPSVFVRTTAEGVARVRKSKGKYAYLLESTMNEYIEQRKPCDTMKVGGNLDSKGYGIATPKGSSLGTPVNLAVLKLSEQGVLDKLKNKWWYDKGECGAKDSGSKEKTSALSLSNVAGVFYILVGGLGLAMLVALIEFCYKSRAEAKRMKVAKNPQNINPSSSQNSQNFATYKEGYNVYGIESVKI
T3 sequence (Q14833 33-912): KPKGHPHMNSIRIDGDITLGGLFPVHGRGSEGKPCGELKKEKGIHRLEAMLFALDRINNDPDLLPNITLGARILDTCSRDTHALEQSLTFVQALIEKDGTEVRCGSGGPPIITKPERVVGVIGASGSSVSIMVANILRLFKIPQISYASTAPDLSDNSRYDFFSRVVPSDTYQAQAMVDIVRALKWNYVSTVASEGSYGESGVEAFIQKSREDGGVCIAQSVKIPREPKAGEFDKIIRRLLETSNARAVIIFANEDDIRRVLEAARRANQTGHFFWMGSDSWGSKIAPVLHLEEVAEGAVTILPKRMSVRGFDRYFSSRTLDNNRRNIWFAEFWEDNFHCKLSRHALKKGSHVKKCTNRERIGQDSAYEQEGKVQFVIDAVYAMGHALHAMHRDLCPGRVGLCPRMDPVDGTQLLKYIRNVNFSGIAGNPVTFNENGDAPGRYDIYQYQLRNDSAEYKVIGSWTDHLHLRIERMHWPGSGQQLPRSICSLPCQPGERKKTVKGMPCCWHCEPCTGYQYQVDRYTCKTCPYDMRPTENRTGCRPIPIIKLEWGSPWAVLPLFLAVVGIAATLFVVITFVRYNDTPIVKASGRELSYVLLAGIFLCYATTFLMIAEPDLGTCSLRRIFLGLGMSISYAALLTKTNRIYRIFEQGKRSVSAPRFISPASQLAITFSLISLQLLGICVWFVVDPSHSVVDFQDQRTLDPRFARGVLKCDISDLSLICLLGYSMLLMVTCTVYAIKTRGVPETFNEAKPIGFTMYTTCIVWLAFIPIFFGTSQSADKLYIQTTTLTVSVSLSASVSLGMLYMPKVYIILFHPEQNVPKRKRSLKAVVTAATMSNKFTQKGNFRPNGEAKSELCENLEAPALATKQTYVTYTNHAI
T1 sequence (P41594 21-1212): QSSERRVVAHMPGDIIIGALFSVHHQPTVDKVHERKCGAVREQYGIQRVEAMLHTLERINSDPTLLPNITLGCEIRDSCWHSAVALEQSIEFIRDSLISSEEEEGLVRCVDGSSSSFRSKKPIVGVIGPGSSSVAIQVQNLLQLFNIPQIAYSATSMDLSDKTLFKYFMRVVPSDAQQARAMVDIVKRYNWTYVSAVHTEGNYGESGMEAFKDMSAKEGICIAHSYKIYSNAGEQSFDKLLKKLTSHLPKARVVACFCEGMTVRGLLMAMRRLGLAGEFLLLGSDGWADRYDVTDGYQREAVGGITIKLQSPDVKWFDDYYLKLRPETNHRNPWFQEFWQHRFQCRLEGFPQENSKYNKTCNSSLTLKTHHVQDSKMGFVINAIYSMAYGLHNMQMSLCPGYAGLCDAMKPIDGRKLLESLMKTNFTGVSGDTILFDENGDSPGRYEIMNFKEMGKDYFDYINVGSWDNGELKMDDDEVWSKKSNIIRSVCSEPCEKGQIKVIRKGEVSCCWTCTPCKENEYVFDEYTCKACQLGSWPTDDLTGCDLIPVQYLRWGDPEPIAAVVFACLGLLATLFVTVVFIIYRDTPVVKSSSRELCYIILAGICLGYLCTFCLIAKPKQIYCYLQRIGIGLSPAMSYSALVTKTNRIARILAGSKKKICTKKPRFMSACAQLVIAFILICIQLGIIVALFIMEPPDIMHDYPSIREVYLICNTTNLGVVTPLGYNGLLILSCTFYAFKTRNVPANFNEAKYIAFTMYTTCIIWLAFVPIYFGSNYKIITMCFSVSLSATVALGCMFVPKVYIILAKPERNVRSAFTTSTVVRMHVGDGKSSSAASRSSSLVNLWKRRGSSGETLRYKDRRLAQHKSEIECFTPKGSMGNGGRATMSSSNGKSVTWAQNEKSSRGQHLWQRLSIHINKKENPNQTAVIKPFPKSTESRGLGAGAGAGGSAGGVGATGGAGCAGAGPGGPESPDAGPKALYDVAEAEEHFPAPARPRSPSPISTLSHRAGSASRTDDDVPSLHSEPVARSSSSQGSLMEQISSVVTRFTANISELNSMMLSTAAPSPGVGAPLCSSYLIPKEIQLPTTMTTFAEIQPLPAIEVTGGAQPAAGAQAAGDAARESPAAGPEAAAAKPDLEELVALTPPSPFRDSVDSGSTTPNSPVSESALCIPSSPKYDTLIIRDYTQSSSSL

The compound `O=C(Nn1c(=O)c(=O)[nH]c2cc(C#Cc3cnc4cccnn34)ccc21)c1ccccc1` [Compound 28] registered a melting point of 314 to 315 °C. For the same compound, the “agonist or antagonist activity at mGluR5” value in data set [1] is “neither agonistic nor antagonistic”. Further, the inhibition at 10 µM in data set [2] was below 5%. For the same compound, the “agonist or antagonist activity at mGluR4” value in data set [3] was “neither agonistic nor antagonistic”.
